pEC50: −log10 of the molar value.
How the values were obtained:
[1] = target: Mitogen-activated protein kinase 13 (Homo sapiens) (UniProt O15264); test: Inhibition of wild-type human full length p38-delta (M1 to L365 residues) expressed in bacterial expression system assessed as residual activity at 50 nM by Kinomescan method relative to control
[2] = target: Serine/threonine-protein kinase tousled-like 1 (Homo sapiens) (UniProt Q9UKI8); test: Inhibition of wild-type human partial length TLK1 (K447 to A754 residues) expressed in bacterial expression system assessed as residual activity at 50 nM by Kinomescan method relative to control
[3] = target: Casein kinase II subunit alpha' (Homo sapiens) (UniProt P19784); test: Inhibition of wild-type human full length CK2A2 (M1 to R350 residues) expressed in mammalian expression system assessed as residual activity at 50 nM by Kinomescan method relative to control
[4] = tested on: Mus musculus; test: In vivo inhibition of JAK1/JAK3 in Balb/c mouse assessed as reduction in IL15-induced STAT5 phosphorylation at […], po after 4 hrs; assay type: functional, organism-based
[5] = target: Megakaryocyte-associated tyrosine-protein kinase (Homo sapiens) (UniProt P42679); test: Inhibition of wild-type human full length CTK (M43 to P508 residues) expressed in mammalian expression system assessed as residual activity at 50 nM by Kinomescan method relative to control
[6] = target: Calcium/calmodulin-dependent protein kinase type IV (Homo sapiens) (UniProt Q16566); test: Inhibition of wild-type human partial length CAMK4 (A22 to A322 residues) expressed in bacterial expression system assessed as residual activity at 50 nM by Kinomescan method relative to control
[7] = target: Tyrosine-protein kinase TXK (Homo sapiens) (UniProt P42681); test: Inhibition of wild-type human partial length TXK (L238 to W527 residues) expressed in bacterial expression system assessed as residual activity at 50 nM by Kinomescan method relative to control
[8] = target: Serine/threonine-protein kinase DCLK3 (Homo sapiens) (UniProt Q9C098); test: Inhibition of wild-type human partial length DCAMKL3 (E140 to V628 residues) expressed in bacterial expression system assessed as residual activity at 50 nM by Kinomescan method relative to control
[9] = target: Non-receptor tyrosine-protein kinase TYK2 (Homo sapiens, UniProt P29597); test: Inhibition of TYK2 (unknown origin) assessed as residual activity at 50 nM by KINOMEscan assay relative to control
[10] = target: Mitogen-activated protein kinase kinase kinase kinase 4 (Homo sapiens) (UniProt O95819); test: Inhibition of wild-type human partial length HGK (M1 to R310 residues) expressed in bacterial expression system assessed as residual activity at 50 nM by Kinomescan method relative to control
[11] = target: Rho-associated protein kinase 2 (Homo sapiens, UniProt O75116); test: Inhibition of human ROCK2 (M1 to T431 residues) expressed in mammalian expression system assessed as residual activity at 50 nM by KINOMEscan assay relative to control
[12] = tested on: Phosphatidylinositol 4,5-bisphosphate 3-kinase catalytic subunit alpha isoform (Homo sapiens), P42336 [M1043I]; test: Inhibition of human partial length PIK3CA M1043I mutant (R108 to N1068 residues) expressed in mammalian expression system assessed as residual activity at 50 nM by Kinomescan method relative to control
[13] = target: RAC-beta serine/threonine-protein kinase (Homo sapiens) (UniProt P31751); test: Inhibition of wild-type human partial length AKT2 expressed in bacterial expression system assessed as residual activity at 50 nM by Kinomescan method relative to control
[14] = target: Proto-oncogene tyrosine-protein kinase Src (Homo sapiens) (UniProt P12931); test: Inhibition of wild-type human partial length SRC (L240 to L536 residues) expressed in bacterial expression system assessed as residual activity at 50 nM by Kinomescan method relative to control
[15] = target: RAC-alpha serine/threonine-protein kinase (Homo sapiens) (UniProt P31749); test: Inhibition of wild-type human partial length AKT1 expressed in bacterial expression system assessed as residual activity at 50 nM by Kinomescan method relative to control
[16] = target: Calcium/calmodulin-dependent protein kinase type II subunit delta (Homo sapiens) (UniProt Q13557); test: Inhibition of wild-type human partial length CAMK2D (M1 to E329 residues) expressed in bacterial expression system assessed as residual activity at 50 nM by Kinomescan method relative to control
[17] = target: Tyrosine-protein kinase Yes (Homo sapiens) (UniProt P07947); test: Inhibition of wild-type human partial length YES (T257 to L543 residues) expressed in bacterial expression system assessed as residual activity at 50 nM by Kinomescan method relative to control
[18] = target: Serine/threonine-protein kinase SIK1 (Homo sapiens) (UniProt P57059); test: Inhibition of wild-type human partial length SIK (M1 to Y304 residues) expressed in bacterial expression system assessed as residual activity at 50 nM by Kinomescan method relative to control
[19] = target: Serine/threonine-protein kinase 10 (Homo sapiens) (UniProt O94804); test: Inhibition of wild-type human partial length LOK (E16 to V314 residues) expressed in bacterial expression system assessed as residual activity at 50 nM by Kinomescan method relative to control
[20] = target: MAP/microtubule affinity-regulating kinase 4 (Homo sapiens) (UniProt Q96L34); test: Inhibition of wild-type human partial length MARK4 (K29 to G340 residues) expressed in bacterial expression system assessed as residual activity at 50 nM by Kinomescan method relative to control
[21] = target: Serine/threonine-protein kinase ULK1 (Homo sapiens) (UniProt O75385); test: Inhibition of human ULK1 (M1 to T309 residues) expressed in mammalian expression system assessed as residual activity at 50 nM by KINOMEscan assay relative to control
[22] = target: Serine/threonine-protein kinase Nek3 (Homo sapiens) (UniProt P51956); test: Inhibition of wild-type human full length NEK3 (M1 to R506 residues) expressed in mammalian expression system assessed as residual activity at 50 nM by Kinomescan method relative to control
[23] = target: Mitogen-activated protein kinase kinase kinase kinase 1 (Homo sapiens) (UniProt Q92918); test: Inhibition of wild-type human full length HPK1 (M1 to R799 residues) expressed in bacterial expression system assessed as residual activity at 50 nM by Kinomescan method relative to control
[24] = target: Cyclin-dependent kinase 13 (Homo sapiens) (UniProt Q14004); test: Inhibition of wild-type human partial length CDC2L5 (H675 to S1054 residues) expressed in mammalian expression system assessed as residual activity at 50 nM by Kinomescan method relative to control
[25] = target: Protein kinase C eta type (Homo sapiens) (UniProt P24723); test: Inhibition of wild-type human partial length PKCH (S324 to P683 residues) expressed in bacterial expression system assessed as residual activity at 50 nM by Kinomescan method relative to control

Structure (SMILES) | Activity [1] | Activity [2] | Activity [3] | pEC50 [4] | Activity [5] | Activity [6] | Activity [7] | Activity [8] | Activity [9] | Activity [10] | Activity [11] | Activity [12] | Activity [13] | Activity [14] | Activity [15] | Activity [16] | Activity [17] | Activity [18] | Activity [19] | Activity [20] | also measured
COc1ccc(-c2cc3c(N[C@@H]4CC[C@](C)(N)C4(C)C)c(C(N)=O)cnn3c2)cn1 | 100% | 80% | 85% | 7.17 | 85% | 100% | 100% | 64% | 50% | 100% | 18% | 100% | 88% | 97% | 95% | 100% | 94% | 96% | 75% | 93% | Activity [21]: 61%; Activity [22]: 100%; Activity [23]: 70%; Activity [24]: 100%; Activity [25]: 70%
CC1(C)[C@H](Nc2c(C(N)=O)cnn3cc(-c4ccccc4)cc23)CC[C@]1(C)N | 100% | 61% | 92% | 6.90 | 95% | 100% | 100% | 39% | 50% | 90% | 3.6% | 66% | 100% | 75% | 79% | 100% | 89% | 80% | 48% | 79% | Activity [21]: 27%; Activity [22]: 89%; Activity [23]: 66%; Activity [24]: 72%; Activity [25]: 49%
